This note sets out measurements from PubChem BioAssay (NCI).

Molecules are shown by their SMILES.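 The compound was tested at five concentrations on cells cultured in 96-well plates, with a 48-hour exposure period. Definition used: TGI = concentration required for complete inhibition of growth.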 Bounds are passed on as bounds.

Experiment in all cases: inhibition of tumour cell growth, NCI panel, 48 h
The subject of assay [1] is OVCAR-4 ovarian.
The subject of assay [2] is HT29 colon.
The test system of assay [3] is SK-OV-3 ovarian.
Assay [4] deals with MCF7 breast.
For assay [5], the system named is OVCAR-8 ovarian.
Assay [6] concerns RPMI-8226 leukemia.
The subject of assay [7] is A549 NSCLC.
In assay [8] the test system is SR leukemia.
In assay [9] the test system is MDA-MB-435.
Assay [10] deals with SK-MEL-2 melanoma.
The test system of assay [11] is COLO 205 colon.

For the compound `O=c1[nH]/c(=C/c2cccs2)c(=O)[nH]/c1=C/c1ccc(OCc2ccccc2)cn1`, the TGI in assay [1] is 45.5 µM; in assay [2], over 100 µM; in [3], 16.1 µM; in assay [4], 39.6 µM; in assay [5] it was 65.4 µM; in [6] it was over 43.2 µM. Besides, the TGI in [7] was over 55.9 µM; in assay [8] it was 0.587 µM; in assay [9], 0.0182 µM; in [10], over 52.2 µM; in assay [11], 12.5 µM.
Regarding `Brc1ccc2c(c1)[C@H]1CCc3c([nH]c4ccccc34)[C@H]1N2`, the TGI in assay [1] was determined as 26.3 µM; in assay [2], 27.1 µM; in assay [3] it was 27.5 µM; in assay [4], 18.6 µM; in [5], 27.4 µM; in assay [6] it was 23.2 µM. Further, the TGI in assay [7] was 47.4 µM; in [8] it was 33.1 µM; in assay [9], 26.2 µM; in assay [10] it was 36.4 µM; in [11] it was 23.6 µM.
As for `CC(CCC(=O)O)(c1cc(Br)c(O)c(Br)c1)c1cc(Br)c(O)c(Br)c1`, the TGI in [1], in assay [2], in assay [3], in [4], in assay [5] and in assay [6] was over 100 µM throughout. Besides, the TGI in [7], in [8], in assay [9], in assay [10] and in [11] was over 100 µM throughout.
For `COc1cc2[nH]c(=O)[nH]c2c2c(C)c[nH]c12`, the TGI in [1], in assay [2], in assay [3], in assay [4], in [5] and in assay [6] was over 100 µM throughout. The TGI in assay [7], in assay [8], in [9], in assay [10] and in [11] was over 100 µM each time.
